{"source": "patent US11285127B2", "about": "“Compositions and methods for lowering triglycerides without raising LDL-C levels in a subject on concomitant statin therapy” (Amarin Pharmaceuticals Ireland Limited, priority 2013, dated 2022)", "tested_on": "patients with fasting triglyceride levels >200 mg/dl and <500 mg/dl despite statin therapy", "assay": "12-week study: red blood cell fatty acids (EPA concentration, FADI ratios) by gas chromatography/flame ionization detection", "format": "in vivo, human", "details": "4 g/day, placebo-adjusted, 12 weeks", "method": "A multi-center, placebo-controlled, randomized, double-blind, 12-week study was performed to evaluate the efficacy and safety of >96% E-EPA in patients with fasting triglyceride levels >200 mg/dl and <500 mg/dl despite statin therapy (the mean of two qualifying entry values needed to be >185 mg/dl and at least one of the values needed to be >200 mg/dl). The primary objective of the study was to determine the efficacy of >96% E-EPA 2 g daily and 4 g daily, compared to placebo, in lowering fasting TG levels in patients with high risk for cardiovascular disease and with fasting TG levels 200 mg/dl and <500 mg/dl, despite treatment to LDL-C goal on statin therapy. The secondary objectives of this study were the following: • 1. To determine the safety and tolerability of >96% E-EPA 2 g daily and 4 g daily; • 2. To determine the effect of >96% E-EPA on lipid and apolipoprotein profiles including total cholesterol (TC), non-high-density lipoprotein cholesterol (non-HDL-C), low density lipoprotein cholesterol (LDL-C), high density lipoprotein cholesterol (HDL-C), and […]; • 3. To determine the effect of >96% E-EPA on lipoprotein associated phospholipase A2 (Lp-PLA2) from baseline to week 12; • 4. To determine the effect of >96% E-EPA on low-density lipoprotein (LDL) particle number and size; • 5. […]"}
{"smiles": "CC/C=C\\C/C=C\\C/C=C\\C/C=C\\C/C=C\\CCCC(=O)OCC", "note": "[AMR101, ethyl eicosapentaenoate]", "values": [{"measurement": "FADI-16 (Palmitoleic acid/Palmitic acid, C16:1/C16:0), % Change, RBCs", "value": "−15.7", "unit": "%"}, {"measurement": "FADI-18 (Oleic acid/Stearic Acid, C18:1/C18:0), % Change, RBCs", "value": "−3.1", "unit": "%"}]}
